# Experimental data reported in US10053428B2, “5-aminotetrahydroquinoline-2-carboxylic acids and their use” (BAYER PHARMA AKTIENGESELLSCHAFT, priority 2012, dated 2018).
# Tested on: recombinant guanylate cyclase reporter cell line
# Assay: sGC-activating activity in the CHO reporter cell in vitro
# Format: cell-based
# Conditions: read-out: MEC (minimum effective concentration)
# Method: B-2. Action at a Recombinant Guanylate Cyclase Reporter Cell Line
# The cellular action of the compounds according to the invention is determined at a recombinant guanylate cyclase reporter cell line, as described in F. Wunder et al., Anal. Biochem. 32, 104-112 (2005).
row,SMILES,minimal effective concentration
1,"CC(C)(C)c1ccc(COc2ccccc2CCN(CCc2ccc(C(=O)O)cc2)C2CCCc3nc(C(=O)O)ccc32)cc1 (racemic) [Example 12, rac-5-{(2-{2-[(4-tert-Butylbenzyl)oxy]phenyl}ethyl)[2-(4-carboxyphenyl)ethyl]amino}-5,6,7,8-tetrahydroquinoline-2-carboxylic acid]",0.3 nM
2,"CC(C)(C)c1ccc(COc2ccccc2CCN(CCCCC(=O)O)C2CCCc3nc(C(=O)O)ccc32)cc1 (single isomer, unassigned) [Example 3]",100 nM
3,"O=C(O)CCCCN(CCc1ccccc1OCc1ccc(-c2ccc(C(F)(F)F)cc2)cc1Cl)C1CCCc2nc(C(=O)O)ccc21 (single isomer, unassigned) [Example 7]",0.3 nM
4,"O=C(O)CCCCN(CCc1ccccc1OCc1ccc(-c2ccc(C(F)(F)F)cc2)cc1Cl)C1CCCc2nc(C(=O)O)ccc21 (single isomer, unassigned) [Example 8]",3 nM
5,"O=C(O)CCCCN(CCc1ccccc1OCCCCCc1ccccc1)C1CCCc2nc(C(=O)O)ccc21 (single isomer, unassigned) [Example 9]",10 nM
6,"O=C(O)CCCCN(CCc1ccccc1OCCCCCc1ccccc1)C1CCCc2nc(C(=O)O)ccc21 (single isomer, unassigned) [Example 10]",300 nM
7,"O=C(O)CCCCN(CCc1ccccc1OCc1ccc(-c2ccc(C(F)(F)F)cc2)cc1)C1CCCc2nc(C(=O)O)ccc21 (single isomer, unassigned) [Example 17]",1000 nM
8,"Cc1ccc2oc(-c3ccc(COc4ccccc4CCN(CCc4ccc(C(=O)O)cc4)C4CCCc5nc(C(=O)O)ccc54)cc3)nc2c1 (single isomer, unassigned) [Example 21]",100 nM
9,"Cc1ccc2oc(-c3ccc(COc4ccccc4CCN(CCc4ccc(C(=O)O)cc4)C4CCCc5nc(C(=O)O)ccc54)cc3)nc2c1 (single isomer, unassigned) [Example 22]",1 nM
10,"O=C(O)c1ccc(CCN(CCc2ccccc2OCc2ccc(-c3nc4cc(C(F)(F)F)ccc4o3)cc2)C2CCCc3nc(C(=O)O)ccc32)cc1 (single isomer, unassigned) [Example 24]",1 nM
11,"O=C(O)CCCCN(CCc1ccccc1OCc1ccc(-c2nc3cc(C(F)(F)F)ccc3o2)cc1)C1CCCc2nc(C(=O)O)ccc21 (single isomer, unassigned) [Example 25]",0.3 nM
12,"O=C(O)c1ccc(CCN(CCc2ccccc2OCc2ccc(-c3nc4ccccc4o3)cc2)C2CCCc3nc(C(=O)O)ccc32)cc1 (single isomer, unassigned) [Example 26]",1 nM
13,"O=C(O)c1ccc(CCN(CCc2ccccc2OCc2ccc(-c3nc4cc(OC(F)(F)F)ccc4o3)cc2)C2CCCc3nc(C(=O)O)ccc32)cc1 (single isomer, unassigned) [Example 29]",3 nM
14,"N#Cc1ccc2oc(-c3ccc(COc4ccccc4CCN(CCc4ccc(C(=O)O)cc4)C4CCCc5nc(C(=O)O)ccc54)cc3)nc2c1 (single isomer, unassigned) [Example 30]",1 nM
15,"N#Cc1ccc2oc(-c3ccc(COc4ccccc4CCN(CCCCC(=O)O)C4CCCc5nc(C(=O)O)ccc54)cc3)nc2c1 (single isomer, unassigned) [Example 31]",10 nM
16,"O=C(O)CCCCN(CCc1ccccc1OCc1ccc(-c2nc3cc(Cl)ccc3o2)cc1)C1CCCc2nc(C(=O)O)ccc21 (single isomer, unassigned) [Example 32]",0.3 nM
17,"O=C(O)c1ccc(CCN(CCc2cc(F)ccc2OCc2ccc(-c3ccc(C(F)(F)F)cc3)cc2Cl)C2CCCc3nc(C(=O)O)ccc32)cc1 (single isomer, unassigned) [Example 33]",10 nM
18,"O=C(O)c1ccc(CCN(CCc2cc(F)ccc2OCc2ccc(-c3ccc(C(F)(F)F)cc3)cc2Cl)C2CCCc3nc(C(=O)O)ccc32)cc1 (single isomer, unassigned) [Example 34]",1 nM
19,"O=C(O)c1ccc(CCN(CCc2cc(F)ccc2OCc2ccc(-c3nc4cc(Cl)ccc4o3)cc2)C2CCCc3nc(C(=O)O)ccc32)cc1 (single isomer, unassigned) [Example 35]",3 nM
20,"O=C(O)CCCCN(CCc1cc(F)ccc1OCc1ccc(-c2nc3cc(Cl)ccc3o2)cc1)C1CCCc2nc(C(=O)O)ccc21 (single isomer, unassigned) [Example 36]",30 nM
21,"O=C(O)CCCCN(CCc1cc(F)ccc1OCc1ccc(-c2nc3cc(Cl)ccc3o2)cc1)C1CCCc2nc(C(=O)O)ccc21 (single isomer, unassigned) [Example 37]",1 nM
22,"O=C(O)c1ccc(CCN(CCc2cc(F)ccc2OCc2ccc(CCc3ccc(F)cc3)cc2)C2CCCc3nc(C(=O)O)ccc32)cc1 (single isomer, unassigned) [Example 42]",3 nM
23,"O=C(O)c1ccc(CCN(CCc2ccccc2OCc2ccc(-c3nc4cc(Cl)ccc4o3)cc2)C2CCCc3nc(C(=O)O)ccc32)cc1 (single isomer, unassigned; enantiomer 1) [Example 19, 5-{[2-(4-Carboxyphenyl)ethyl][2-(2-{[4-(5-chloro-1,3-benzoxazol-2-yl)benzyl]oxy}phenyl)ethyl]-amino}-5,6,7,8-tetrahydroquinoline-2-carboxylic acid (Enantiomer 1)]",30 nM
24,"O=C(O)c1ccc(CCN(CCc2ccccc2OCc2ccc(-c3nc4cc(Cl)ccc4o3)cc2)C2CCCc3nc(C(=O)O)ccc32)cc1 (single isomer, unassigned; enantiomer 2) [Example 20, 5-{[2-(4-Carboxyphenyl)ethyl][2-(2-{[4-(5-chloro-1,3-benzoxazol-2-yl)benzyl]oxy}phenyl)ethyl]-amino}-5,6,7,8-tetrahydroquinoline-2-carboxylic acid (Enantiomer 2)]",3 nM
25,"O=C(O)c1ccc(CCN(CCc2ccccc2OCc2ccc(CCc3ccccc3)cc2)C2CCCc3nc(C(=O)O)ccc32)cc1 (single isomer, unassigned; enantiomer 2) [Example 38, 5-{[2-(4-Carboxyphenyl)ethyl][2-(2-{[4-(2-phenylethyl)benzyl]oxy}phenyl)ethyl]amino}-5,6,7,8-tetrahydroquinoline-2-carboxylic acid (Enantiomer 2)]",0.3 nM
26,"O=C(O)c1ccc(CCN(CCc2cc(F)ccc2OCc2ccc(CCc3ccc(F)cc3)cc2)C2CCCc3nc(C(=O)O)ccc32)cc1 (single isomer, unassigned; enantiomer 2) [Example 43, 5-([2-(4-Carboxyphenyl)ethyl]{2-[5-fluoro-2-({4-[2-(4-fluorophenyl)ethyl]benzyl}oxy)phenyl]-ethyl}amino)-5,6,7,8-tetrahydroquinoline-2-carboxylic acid (Enantiomer 2)]",0.3 nM
27,CCC(=O)N1CCC(c2ccc(COc3ccccc3CCN(CCCCC(=O)O)C3CCCc4nc(C(=O)O)ccc43)cc2)CC1 (stereo not shown) [Example 5],100 nM
28,O=C(O)CCCCN(CCc1ccccc1OCc1ccc([C@H]2CC[C@H](C(F)(F)F)CC2)cc1)C1CCCc2nc(C(=O)O)ccc21 (stereo partly shown) [Example 11],0.3 nM
